Patent publication EP0502987B1, “ACYLATED BRADYKININ ANTAGONISTS AND USES THEREFOR” (TRUSTEES OF BOSTON UNIVERSITY, priority 1989, dated 1994)
Square brackets hold non-standard residues; d marks the D form. Peptide text beside a SMILES is read from it. Hyp = O=C(O)[C@@H]1C[C@@H](O)CN1; 2Thi = N[C@@H](Cc1cccs1)C(=O)O

Test system: vasodepressor response of exogenous bradykinin
Assay: Inhibition of the vasodepressor response to exogenous bradykinin in awake rats
Format: in vivo, Wistar rats
Protocol: An adamantane acetic acid-modified bradykinin analog was synthesized by the solid-phase method described in Example 1. The analog designed by Stewart et al. was also synthesized and used as a control. The control (or model) and test analogs had the following structure: Model: D-Arg-Arg-Pro-Hyp-Gly-Thi-Ser-D-Phe-Thi-Arg Test: [formula] The antagonistic potency of the analogs was assessed by their ability to inhibit the vasodepressor response of exogenous bradykinin in awake rats.
Intact male Wistar rats (Charles River Breeding Laboratories, Wilmington, MA, U.S.A.) weighing 225-250 g were used and maintained on a regular Purina Rat Chow diet and tap water in a room at constant temperature (23 ± 1°C) with 12 hour dark/12 hour light cycles. One day before the experiment, the right carotid and the iliac artery in the rats were catheterized with polyethylene tubing (PE 50) under light ether anesthesia. A "Y" type connection was connected to the carotid artery catheter with two ends: one for injecting bradykinin and the other for infusing the bradykinin analogs. All of the catheters were externalized subcutaneously at the back of the neck. On the day of the experiment, the rats were maintained conscious and unrestrained in plastic cages. Arterial pressure (AP), mean arterial pressure (MAP) and heart rate (HR) were monitored through a Gould-Statham P23 ID pressure transducer (Gould, Cleveland, OH) connected to the iliac catheter and recorded on a Gould 2200S paper chart recorder. A half-hour period was allowed before the actual initiation of the experiment. […]
The effectiveness of each analog was tested by regression analysis of the data obtained in each rat, using a logarithmic transformation of the linear portion of each dose-response curve to calculate the ED₂₂ and ED₉₀ values. The comparison between the two analogs at the same dose was determined using the Students Nonpaired T Test. […]
The pA₂ is the most commonly used parameter to quantitatively express the potency of an antagonist. […]

**Q.** How did the ED₂₂ (dose of analog infused (intracarotid) which inhibits 22% of the vasodepressor response to 250 ng of BK, conscious rats pretreated with enalapril 1 mg/kg, 7 rats, mean ± SE) turn out when `N=C(N)NCCC[C@@H](N)C(=O)N[C@@H](CCCNC(=N)N)C(=O)N1CCC[C@H]1C(=O)N1C[C@H](O)C[C@H]1C(=O)NCC(=O)N[C@@H](Cc1cccs1)C(=O)N[C@@H](CO)C(=O)N[C@H](Cc1ccccc1)C(=O)N[C@@H](Cc1cccs1)C(=O)N[C@@H](CCCNC(=N)N)C(=O)O` [Model Analog, D-Arg-Arg-Pro-Hyp-Gly-Thi-Ser-D-Phe-Thi-Arg] (H-[dR]RP[Hyp]G[2Thi]S[dF][2Thi]R-OH) was run?
**A.** The ED₂₂ was 1.49 ± 0.29 µg/min.

**Q.** And the ED₉₀ (dose of analog infused (intracarotid) which inhibits 90% of the vasodepressor response to 250 ng of BK, conscious rats pretreated with enalapril 1 mg/kg, 7 rats, mean ± SE)?
**A.** The ED₉₀ was 142.50 ± 26.44 µg/min.

**Q.** What about the “pA₂ (anti-vasodepressor potency)” value (negative logarithm of ED value (ED₂₂) divided by estimated volume of distribution (67ml/kg)) of the same molecule?
**A.** The value was 7.17±0.11.
